Measurements reported in the supplement of paper PMC10307832.

Experiments:
Assay in all cases: relative viability (nuclei count vs DMSO), 5 days (fraction); higher = more cells survive
H3255 = tested on: H3255
How it was run: (§1)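 Relative viability divides the nuclei count in treated wells by that in vehicle wells. Lung cancer cell lines were seeded in 1536-well plates, dosed by pin tool the next day, and fixed and stained after 5 days in one step with final 0.05% Triton X-100, 1% formaldehyde and 1 ug/ml Hoechst. Dosing was a single drug or a fixed anchor-drug dose plus five library-drug doses (not always all listed) in √10 steps, and values are medians of duplicate plates imaged at 4×.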

SK-LU-1 = tested on: SK-LU-1
How it was run: as §1

NCI-H358 = tested on: NCI-H358
How it was run: as §1

NCI-H2405 = tested on: NCI-H2405
How it was run: as §1

NCI-H1648 = tested on: NCI-H1648
How it was run: as §1

BEN = tested on: BEN
How it was run: as §1

NCI-H1650 = tested on: NCI-H1650
How it was run: as §1

UMC-11 = tested on: UMC-11
How it was run: as §1

A-427 = tested on: A-427
How it was run: as §1

NCI-H1666 = tested on: NCI-H1666
How it was run: as §1

NCI-H727 = tested on: NCI-H727
How it was run: as §1

NCI-H2126 = tested on: NCI-H2126
How it was run: as §1

NCI-H2087 = tested on: NCI-H2087
How it was run: as §1

NCI-H2009 = tested on: NCI-H2009
How it was run: as §1

NCI-H3122 = tested on: NCI-H3122
How it was run: as §1

EKVX = tested on: EKVX
How it was run: as §1

NCI-H520 = tested on: NCI-H520
How it was run: as §1

NCI-H441 = tested on: NCI-H441
How it was run: as §1

NCI-H322M = tested on: NCI-H322M
How it was run: as §1

NCI-H23 = tested on: NCI-H23
How it was run: as §1

NCI-H1755 = tested on: NCI-H1755
How it was run: as §1

NCI-H1437 = tested on: NCI-H1437
How it was run: as §1

NCI-H2347 = tested on: NCI-H2347
How it was run: as §1

ChaGo-K-1 = tested on: ChaGo-K-1
How it was run: as §1

Q: Which results are given for `Oc1nc(-c2ccc(C(F)(F)F)cc2)nc2c1CSCC2` [XAV939] + O=C(c1cc(Cc2n[nH]c(=O)c3ccccc23)ccc1F)N1CCN(C(=O)C2CC2)CC1 [Olaparib] (partner 8 µM)?
A: relative viability (H3255; first compound 0.08 µM): 0.598; relative viability (H3255; first compound 0.253 µM): 0.563; relative viability (H3255; first compound 0.8 µM): 0.553; relative viability (H3255; first compound 2.53 µM): 0.51; relative viability (SK-LU-1; first compound 0.08 µM): 0.5; relative viability (SK-LU-1; first compound 0.253 µM): 0.481; relative viability (SK-LU-1; first compound 0.8 µM): 0.437; relative viability (SK-LU-1; first compound 2.53 µM): 0.596; relative viability (NCI-H358; first compound 0.08 µM): 0.615; relative viability (NCI-H358; first compound 0.253 µM): 0.5; relative viability (NCI-H358; first compound 0.8 µM): 0.598; relative viability (NCI-H358; first compound 2.53 µM): 0.563; relative viability (NCI-H2405; first compound 0.08 µM): 0.974; relative viability (NCI-H2405; first compound 0.253 µM): 0.824; relative viability (NCI-H2405; first compound 0.8 µM): 0.797; relative viability (NCI-H2405; first compound 2.53 µM): 0.766; relative viability (NCI-H1648; first compound 0.253 µM): 0.63; relative viability (NCI-H1648; first compound 0.8 µM): 1.12; relative viability (NCI-H1648; first compound 2.53 µM): 0.355; relative viability (BEN; first compound 0.08 µM): 1.14; relative viability (BEN; first compound 0.253 µM): 1.04; relative viability (BEN; first compound 0.8 µM): 1.02; relative viability (BEN; first compound 2.53 µM): 0.845; relative viability (NCI-H1650; first compound 0.08 µM): 0.762; relative viability (NCI-H1650; first compound 0.253 µM): 0.633; relative viability (NCI-H1650; first compound 0.8 µM): 0.749; relative viability (NCI-H1650; first compound 2.53 µM): 0.61; relative viability (UMC-11; first compound 0.08 µM): 0.488; relative viability (UMC-11; first compound 0.253 µM): 0.327; relative viability (UMC-11; first compound 0.8 µM): 0.327; relative viability (UMC-11; first compound 2.53 µM): 0.274; relative viability (A-427; first compound 0.08 µM): 0.785; relative viability (A-427; first compound 0.253 µM): 0.584; relative viability (A-427; first compound 0.8 µM): 0.706; relative viability (A-427; first compound 2.53 µM): 0.663; relative viability (NCI-H1666; first compound 0.08 µM): 0.748; relative viability (NCI-H1666; first compound 0.253 µM): 0.741; relative viability (NCI-H1666; first compound 0.8 µM): 0.745; relative viability (NCI-H1666; first compound 2.53 µM): 0.754; relative viability (NCI-H727; first compound 0.08 µM): 0.706; relative viability (NCI-H727; first compound 0.8 µM): 0.696; relative viability (NCI-H727; first compound 2.53 µM): 0.678; relative viability (NCI-H2126; first compound 0.08 µM): 0.962; relative viability (NCI-H2126; first compound 0.253 µM): 0.839; relative viability (NCI-H2126; first compound 0.8 µM): 0.865; relative viability (NCI-H2126; first compound 2.53 µM): 0.855; relative viability (NCI-H2087; first compound 0.08 µM): 0.625; relative viability (NCI-H2087; first compound 0.253 µM): 0.533; relative viability (NCI-H2087; first compound 0.8 µM): 0.665; relative viability (NCI-H2087; first compound 2.53 µM): 0.464; relative viability (NCI-H2009; first compound 0.08 µM): 0.918; relative viability (NCI-H2009; first compound 0.253 µM): 0.728; relative viability (NCI-H2009; first compound 0.8 µM): 0.641; relative viability (NCI-H2009; first compound 2.53 µM): 0.754; relative viability (NCI-H3122; first compound 0.08 µM): 0.706; relative viability (NCI-H3122; first compound 0.253 µM): 0.574; relative viability (NCI-H3122; first compound 0.8 µM): 0.538; relative viability (NCI-H3122; first compound 2.53 µM): 0.468; relative viability (EKVX; first compound 0.08 µM): 0.929; relative viability (EKVX; first compound 0.253 µM): 0.514; relative viability (EKVX; first compound 0.8 µM): 0.65; relative viability (EKVX; first compound 2.53 µM): 0.378; relative viability (NCI-H520; first compound 0.08 µM): 0.375; relative viability (NCI-H520; first compound 0.8 µM): 0.342; relative viability (NCI-H520; first compound 2.53 µM): 0.356; relative viability (NCI-H441; first compound 0.08 µM): 0.68; relative viability (NCI-H441; first compound 0.253 µM): 0.448; relative viability (NCI-H441; first compound 0.8 µM): 0.613; relative viability (NCI-H441; first compound 2.53 µM): 0.521; relative viability (NCI-H322M; first compound 0.08 µM): 0.874; relative viability (NCI-H322M; first compound 0.253 µM): 0.752; relative viability (NCI-H322M; first compound 0.8 µM): 0.667; relative viability (NCI-H322M; first compound 2.53 µM): 0.661; relative viability (NCI-H23; first compound 0.08 µM): 0.323; relative viability (NCI-H23; first compound 0.8 µM): 0.278; relative viability (NCI-H23; first compound 2.53 µM): 0.264; relative viability (NCI-H1755; first compound 0.08 µM): 0.798; relative viability (NCI-H1755; first compound 0.253 µM): 0.767; relative viability (NCI-H1755; first compound 0.8 µM): 0.816; relative viability (NCI-H1755; first compound 2.53 µM): 0.733; relative viability (NCI-H1437; first compound 0.08 µM): 0.631; relative viability (NCI-H1437; first compound 0.253 µM): 0.593; relative viability (NCI-H1437; first compound 0.8 µM): 0.558; relative viability (NCI-H1437; first compound 2.53 µM): 0.355; relative viability (NCI-H2347; first compound 0.08 µM): 0.667; relative viability (NCI-H2347; first compound 0.253 µM): 0.543; relative viability (NCI-H2347; first compound 0.8 µM): 0.569; relative viability (NCI-H2347; first compound 2.53 µM): 0.517; relative viability (ChaGo-K-1; first compound 0.08 µM): 0.409; relative viability (ChaGo-K-1; first compound 0.253 µM): 0.392; relative viability (ChaGo-K-1; first compound 0.8 µM): 0.384; relative viability (ChaGo-K-1; first compound 2.53 µM): 0.376
